According to the NIST ThermoML archive (doi:10.1016/j.tca.2010.04.004):

Assay: mn = molality of the nth substance listed, in mol/kg
Conditions: 298.15 K, 101 kPa, Liquid, Vibrating tube method

O=S(=O)(O)CC(O)CN1CCOCC1 (stereo not drawn) [3-morpholino-2-hydroxypropanesulfonic acid] + O
Conditions	mass density [kg/m3]
m1 = 0.0126	998.04
m1 = 0.0178	998.45
m1 = 0.0228	998.84
m1 = 0.027	999.17
m1 = 0.036	999.87
m1 = 0.045	1000.57
m1 = 0.0519	1001.1
m1 = 0.063	1001.95
m1 = 0.0706	1002.53
m1 = 0.0771	1003.03

O=S(=O)(O)CCCCN1CCOCC1 [4-morpholinebutanesulfonic acid] + O
Conditions	mass density [kg/m3]
m1 = 0.0134	997.89
m1 = 0.0201	998.3
m1 = 0.0282	998.8
m1 = 0.0365	999.31
m1 = 0.0456	999.87
m1 = 0.054	1000.38
m1 = 0.0636	1000.96
m1 = 0.0702	1001.35
m1 = 0.0768	1001.74
m1 = 0.0827	1002.09

O=S(=O)(O)CCN1CCOCC1 [4-morpholineethanesulfonic acid] + O
Conditions	mass density [kg/m3]
m1 = 0.0114	997.79
m1 = 0.018	998.22
m1 = 0.0237	998.59
m1 = 0.0301	999.01
m1 = 0.0403	999.67
m1 = 0.0513	1000.38
m1 = 0.0614	1001.03
m1 = 0.0722	1001.72
m1 = 0.0822	1002.35
m1 = 0.0947	1003.14

O=S(=O)(O)CCCN1CCOCC1 [4-morpholinepropanesulfonic acid] + O
Conditions	mass density [kg/m3]
m1 = 0.0077	997.53
m1 = 0.0172	998.13
m1 = 0.0292	998.88
m1 = 0.0386	999.46
m1 = 0.0496	1000.14
m1 = 0.0556	1000.5
m1 = 0.0611	1000.84
m1 = 0.0668	1001.19
m1 = 0.0736	1001.59
m1 = 0.0812	1002.05
m1 = 0.0869	1002.39

[Br-].[K+] [potassium bromide] + O
Conditions	mass density [kg/m3]
m1 = 0.05	1001.25
m1 = 0.16	1010.47
m1 = 0.25	1017.89

[Cl-].[K+] [potassium chloride] + O
Conditions	mass density [kg/m3]
m1 = 0.05	999.45
m1 = 0.16	1004.53
m1 = 0.25	1008.66

CC(=O)[O-].[K+] [potassium ethanoate] + O
Conditions	mass density [kg/m3]
m1 = 0.05	999.46
m1 = 0.16	1004.6
m1 = 0.25	1008.74

[Cl-].[Na+] [sodium chloride] + O
Conditions	mass density [kg/m3]
m1 = 0.05	999.12
m1 = 0.16	1003.6
m1 = 0.25	1007.22
